Measured values: PubChem BioAssay (NCI)
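Results reflect a 48-hour exposure of cells in 96-well plates to compound at five concentrations. TGI: concentration producing complete growth inhibition.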

Experiments:
Assay in all cases: inhibition of tumour cell growth, NCI panel, 48 h
HCC-2998 colon = test system: HCC-2998 colon
PC-3 prostate = test system: PC-3 prostate
KM12 colon = test system: KM12 colon
NCI-H226 lung = test system: NCI-H226 lung
K-562 leukemia = test system: K-562 leukemia
ACHN renal = test system: ACHN renal
SK-OV-3 ovarian = test system: SK-OV-3 ovarian
RXF 393 renal = test system: RXF 393 renal
OVCAR-4 ovarian = test system: OVCAR-4 ovarian
MALME-3M melanoma = test system: MALME-3M melanoma
LOX IMVI melanoma = test system: LOX IMVI melanoma
DU-145 prostate = test system: DU-145 prostate
OVCAR-8 ovarian = test system: OVCAR-8 ovarian
SNB-19 CNS = test system: SNB-19 CNS
HCT-116 colon = test system: HCT-116 colon
SF-539 CNS = test system: SF-539 CNS
SK-MEL-28 melanoma = test system: SK-MEL-28 melanoma
SNB-75 CNS = test system: SNB-75 CNS
SF-295 CNS = test system: SF-295 CNS
OVCAR-5 ovarian = test system: OVCAR-5 ovarian
CCRF-CEM leukemia = test system: CCRF-CEM leukemia
MDA-MB-435 = test system: MDA-MB-435
A549 NSCLC = test system: A549 NSCLC
RPMI-8226 leukemia = test system: RPMI-8226 leukemia
SK-MEL-2 melanoma = test system: SK-MEL-2 melanoma
786-0 renal = test system: 786-0 renal
NCI-H23 lung = test system: NCI-H23 lung
OVCAR-3 ovarian = test system: OVCAR-3 ovarian
EKVX NSCLC = test system: EKVX NSCLC
SN12C renal = test system: SN12C renal
HCT-15 colon = test system: HCT-15 colon
MDA-N = test system: MDA-N
MDA-MB-231 breast = test system: MDA-MB-231 breast
HS 578T breast = test system: HS 578T breast
UACC-257 melanoma = test system: UACC-257 melanoma
MCF7 breast = test system: MCF7 breast
UO-31 renal = test system: UO-31 renal
BT-549 breast = test system: BT-549 breast
CAKI-1 renal = test system: CAKI-1 renal
HOP-62 NSCLC = test system: HOP-62 NSCLC
U251 CNS = test system: U251 CNS
T-47D breast = test system: T-47D breast
SW-620 colon = test system: SW-620 colon
M14 melanoma = test system: M14 melanoma
HT29 colon = test system: HT29 colon
SF-268 CNS = test system: SF-268 CNS
COLO 205 colon = test system: COLO 205 colon
UACC-62 melanoma = test system: UACC-62 melanoma
MOLT-4 leukemia = test system: MOLT-4 leukemia
NCI-H460 lung = test system: NCI-H460 lung
NCI/ADR-RES ovarian = test system: NCI/ADR-RES ovarian
A498 renal = test system: A498 renal

O=c1[nH]nc(-c2ccccc2)n1/N=C/c1cccs1
TGI (HCC-2998 colon): > 100 µM | TGI (PC-3 prostate): > 100 µM | TGI (KM12 colon): > 100 µM | TGI (NCI-H226 lung): > 100 µM | TGI (K-562 leukemia): > 100 µM | TGI (ACHN renal): > 100 µM | TGI (SK-OV-3 ovarian): > 100 µM | TGI (RXF 393 renal): 85.2 µM | TGI (OVCAR-4 ovarian): 62 µM | TGI (MALME-3M melanoma): > 100 µM | TGI (LOX IMVI melanoma): > 100 µM | TGI (DU-145 prostate): > 100 µM | TGI (OVCAR-8 ovarian): > 100 µM | TGI (SNB-19 CNS): > 100 µM | TGI (HCT-116 colon): > 100 µM | TGI (SF-539 CNS): > 100 µM | TGI (SK-MEL-28 melanoma): > 100 µM | TGI (SNB-75 CNS): > 100 µM | TGI (SF-295 CNS): > 100 µM | TGI (OVCAR-5 ovarian): > 100 µM | TGI (CCRF-CEM leukemia): > 100 µM | TGI (MDA-MB-435): 79.5 µM | TGI (A549 NSCLC): > 100 µM | TGI (RPMI-8226 leukemia): > 100 µM | TGI (SK-MEL-2 melanoma): > 100 µM | TGI (786-0 renal): > 100 µM | TGI (NCI-H23 lung): > 100 µM | TGI (OVCAR-3 ovarian): > 100 µM | TGI (EKVX NSCLC): > 100 µM | TGI (SN12C renal): > 100 µM | TGI (HCT-15 colon): > 100 µM | TGI (MDA-N): > 100 µM | TGI (MDA-MB-231 breast): > 100 µM | TGI (HS 578T breast): > 100 µM | TGI (UACC-257 melanoma): > 100 µM | TGI (MCF7 breast): > 100 µM | TGI (UO-31 renal): > 100 µM | TGI (BT-549 breast): 95.8 µM | TGI (CAKI-1 renal): > 100 µM | TGI (HOP-62 NSCLC): > 100 µM | TGI (U251 CNS): > 100 µM | TGI (T-47D breast): > 100 µM | TGI (SW-620 colon): > 100 µM | TGI (M14 melanoma): > 100 µM | TGI (HT29 colon): > 100 µM | TGI (SF-268 CNS): > 100 µM | TGI (COLO 205 colon): 35.8 µM | TGI (UACC-62 melanoma): > 100 µM | TGI (MOLT-4 leukemia): > 100 µM | TGI (NCI-H460 lung): > 100 µM | TGI (NCI/ADR-RES ovarian): 93.8 µM | TGI (A498 renal): > 100 µM
